Read-outs that look alike come from different tables or passages of the source.
Legend:
Bel-7402 = assay: Tumor cell proliferation (MTS), Bel-7402; assay type: cell-based; details: Homo sapiens; Bel-7402, 72 hours; read-out: Gl50 µM in Bel-7402
Protocol: (§1) Tumor cells were trypsinized and plated into 96-well plates at 3,000 per well and incubated in complete medium with 10% FBS for 24 hours. Compounds to be tested and vehicle control were added, and the final concentration of compound is in the range of 100 nmol/L to 100 µmol/L. The compounds were incubated for 72 hours in complete medium. The MTS reagent (Promega) was added according to the instruction, incubated for 2 hours at 37°C in CO2 incubator. Then absorbance at 490nm is read using an ELISA plate reader.

Class I HDAC = assay: HDAC subtype selectivity reporter gene assay (P21 reporter, HeLa cells); assay type: cell-based; details: Homo sapiens, read-out: Class I HDAC (P21 reporter assay) Fold Induction at 10µM
Protocol: Different HDAC subtypes can bind with different transcriptional factors and involve in expression regulation of various genes. Suitable regulation elements for transcriptional factors are selected to construct reporter genes, which can be used to evaluate the selective inhibition of inhibors on HDAC subtypes. Briefly, HeLa cells were seeded in 96-well plates the day before transfection to give a confluence of 50-80% when transfection. Cells were transfected with one of reporter gene plasmid containing a p21-promoter sequence or response element upstream of a luciferase gene construct using FuGene6 transfection reagent according to the manufacturer's instruction (Roche). For normalizing the transfection efficiency, a GFP expression plasmid was cotransfected. After 24 hours compounds or the vehicle control (DMSO) were added. 24 hours later the cells were harvested and lysed, and the amount of the luciferase was evaluated using luciferase assay kits (Promega) according to the manufacturer's instructions.

A549 = assay: Tumor cell proliferation (MTS), A549; assay type: cell-based; details: Homo sapiens; A549, 72 hours; read-out: Gl50 µM in A549
Protocol: as §1

HCT-8 = assay: Tumor cell proliferation (MTS), HCT-8; assay type: cell-based; details: Homo sapiens; HCT-8, 72 hours; read-out: Gl50 µM in HCT-8
Protocol: as §1

A-498 = assay: Tumor cell proliferation (MTS), A-498; assay type: cell-based; details: Homo sapiens, A498; A-498, 72 hours; read-out: Gl50 µM in A-498
Protocol: as §1

total HDAC enzyme = assay: In vitro total HDAC enzyme activity (HDAC Fluorimetric Assay/Drug Discovery Kit, HeLa cell nuclear extract); assay type: biochemical
Protocol: The in vitro total HDAC enzyme activity was determined by HDAC Fluorimetric Assay/Drug Discovery Kit (BIOMOL) according to manufacture's instruction. The principle of the experiment is as follows: under the action of histone deacetylase (in the experiment, HeLa cell nuclear extract, which was rich in a variety of subtypes of HDAC, was used), an acetyl group is removed from a special substrate Fluor de Lys, thus the free amino is exposed. Upon Developer is added, the substrate will produce fluorescence. For the fluorescence, excitation wavelength is 360nm, and emission wavelength is 460nm. More fully the substrate deacetylated, more higher the fluorescence induced. In the absence of inhibitors, the fluorescence value is taken as the control; when inhibitor is existed, fluorescence value induced will be reduced, while in the case no enzyme is existed (corresponding to the completely inhibition of enzyme activity) the fluorescence value is blank. Generally, after suppression the fluorescence values will be between the control and blank. When analysis is made, blank will be used as 0, and the control will be used as 1. Smaller value means higher inhibitory activity. 1. Add Assay buffer, diluted trichostatin A and test inhibitor to appropriate wells of the microtiter plate. Following table lists the amounts used for each regent of various assay types.
2. Add diluted HeLa nucleoprotein extract to all wells except those that are marked as "blank". 3. Allow diluted Fluor de Lys™ Substrate and the samples in the microtiter plate to equilibrate to 25°C. 4. Initiate HDAC reactions by adding diluted substrate (25 µl) to each well and mixing thoroughly. 5. Allow reactions to proceed for 30 minutes and then stop them by addition of Fluor de Lys™ Developer (50 µl). Incubate plate at room temperature (25°C) for 10-15 min. 6. Read fluorescence of samples on a microtiter-plate reading fluorimeter at a excitation wavelength of 369 nm and a emitted wavelength of 451 nm.

HUVEC cells = assay: VEGF dependent cell proliferation (MTS); assay type: cell-based; details: Homo sapiens, VEGF 165 (50ng/ml), 72 hours, serum-free medium, read-out: Gl50 nM (VEGF ligand-dependent cell proliferation)
Protocol: HUVEC cells were plated into 96-well plates at 6,000 per well and after 24 hours incubated with serum-free medium for 2 hours. Compounds to be tested and VEGF 165 (50ng/ml) were added and incubated for 72 hours in serum-free medium. The effects on cell proliferation were determined by MTS method (Promega) according to the instruction. Incubation was performed for 2 hours at 37°C in CO2 incubator, and absorbance at 490nm was determined using an ELISA plate reader.

human PDGFRβ = molecular target: T1, human PDGFRβ (Homo sapiens, UniProt P09619); assay: PDGF dependent cell proliferation (MTS); assay type: cell-based
T1 construct: expressed in transfected cells
T1 sequence (P09619 33-1106): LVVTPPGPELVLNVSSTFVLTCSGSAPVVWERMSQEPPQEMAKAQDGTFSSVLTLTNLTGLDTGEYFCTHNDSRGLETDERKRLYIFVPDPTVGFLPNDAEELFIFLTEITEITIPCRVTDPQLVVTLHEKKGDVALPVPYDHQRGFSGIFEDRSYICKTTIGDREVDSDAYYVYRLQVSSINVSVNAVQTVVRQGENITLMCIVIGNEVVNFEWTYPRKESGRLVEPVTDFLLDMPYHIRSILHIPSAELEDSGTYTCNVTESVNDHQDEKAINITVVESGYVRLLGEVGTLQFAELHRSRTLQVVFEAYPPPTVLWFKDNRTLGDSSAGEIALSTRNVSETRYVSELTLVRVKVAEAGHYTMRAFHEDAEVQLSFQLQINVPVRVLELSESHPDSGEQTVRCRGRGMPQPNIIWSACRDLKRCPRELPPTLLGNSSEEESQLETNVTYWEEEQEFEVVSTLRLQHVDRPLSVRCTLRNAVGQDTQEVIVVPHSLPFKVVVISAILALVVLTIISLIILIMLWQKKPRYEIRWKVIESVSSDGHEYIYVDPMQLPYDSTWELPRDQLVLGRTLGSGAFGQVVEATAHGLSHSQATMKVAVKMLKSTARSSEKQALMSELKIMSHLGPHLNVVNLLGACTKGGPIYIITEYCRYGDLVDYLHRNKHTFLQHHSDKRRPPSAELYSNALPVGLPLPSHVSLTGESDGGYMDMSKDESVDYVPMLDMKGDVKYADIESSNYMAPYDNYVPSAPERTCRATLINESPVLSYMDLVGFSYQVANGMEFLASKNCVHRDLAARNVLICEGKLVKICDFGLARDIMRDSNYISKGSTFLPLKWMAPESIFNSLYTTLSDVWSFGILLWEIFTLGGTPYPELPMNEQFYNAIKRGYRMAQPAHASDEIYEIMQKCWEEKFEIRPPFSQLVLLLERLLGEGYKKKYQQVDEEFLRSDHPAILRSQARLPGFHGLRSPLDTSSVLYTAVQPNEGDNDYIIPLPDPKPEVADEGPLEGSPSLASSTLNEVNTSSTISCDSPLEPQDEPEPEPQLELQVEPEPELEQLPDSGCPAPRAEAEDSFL
Protocol: NIH-3T3 mouse fibroblasts cell line engineered to stably express human PDGFRβ was constructed and used to evaluate PDGF dependent cell proliferation. PDGFRβ NIH-3T3 cells were plated into 96-well plates at 5,000 per well and incubated overnight with serum-free medium after 24 hours. Compounds to be tested and PDGF BB (50ng/ml) were added and incubated for 72 hours in serum-free medium. The effects on proliferation were determined by MTS method (Promega) according to the instruction. Incubation was performed for 2 hours at 37°C in CO2 incubator, and absorbance at 490nm was measured using an ELISA plate reader.

MCF-7 = assay: Tumor cell proliferation (MTS), MCF-7; assay type: cell-based; details: Homo sapiens, MCF7; MCF-7, 72 hours; read-out: Gl50 µM in MCF-7
Protocol: as §1

[1] = PDGFRβ NIH-3T3 cells, PDGF BB (50ng/ml), 72 hours, serum-free medium; read-out: Gl50 nM (PDGF ligand-dependent cell proliferation)
[2] = read-out: Gl50 nM (PDGF ligand-dependent cell proliferation); PDGFRβ NIH-3T3 cells, PDGF BB (50ng/ml), 72 hours, serum-free medium

Row | Compound | IC50 (Bel-7402) [µM] | fold induction at 10 µM (Class I HDAC; 10µM, HeLa cells, 24 hours) | IC50 (A549) [µM] | IC50 (HCT-8) [µM] | IC50 (A-498) [µM] | % inhibition of total HDAC enzyme activity at 30µM (total HDAC enzyme) [%] | IC50 (HUVEC cells) [µM] | IC50 (human PDGFRβ; [1]) [µM] | IC50 (MCF-7) [µM] | fold induction at 10 µM (Class I HDAC; HeLa, 24 h) | IC50 (human PDGFRβ; [2]) [µM]
1 | COc1ccc2c(Oc3ccc4c(C(=O)Nc5ccc(F)cc5N)cccc4c3)ccnc2c1 [Compound 32, N-(2-amino-4-fluorophenyl)-6-(7-methoxyquinolin-4-yloxy)-1-naphthamide] | 17.3 | 1.8 | 8.3 | 6.6 | 7.5 | 21.7 | 0.002 | 0.02 | 15.9 |  | 
2 | COc1cc2ncnc(Oc3ccc4c(C(=O)Nc5ccccc5N)cccc4c3)c2cc1OC [Compound 16, N-(2-aminophenyl)-6-(6,7-dimethoxyquinazolin-4-yloxy)-1-naphthamide] | 30 | 1.3 | 30 | 12.3 | 30 | 8.6 | 0.003 | 0.048 | 30 |  | 
3 | COc1cc2ncnc(Oc3ccc4c(C(=O)Nc5ccc(F)cc5N)cccc4c3)c2cc1OC [Compound 17, N-(2-amino-4-fluorophenyl)-6-(6,7-dimethoxyquinazolin-4-yloxy)-1-naphthamide] | 30 | 1.1 | 30 | 3 | 30 | 22.5 | 0.003 | 0.04 | 30 |  | 
4 | Nc1cc(F)ccc1NC(=O)c1ccc(CNC(=O)/C=C/c2cccnc2)cc1 [CS055, Chidamide, reference compound] | 18.9 | 33 | 11.2 | 7.71 | 12.1 |  |  |  | 3.87 |  | 
5 | COc1cc2ncnc(Oc3ccc4c(C(=O)NCc5ccc(C(=O)Nc6ccccc6N)cc5)cccc4c3)c2cc1OC [Compound 23, N-(4-((2-aminophenyl)carbamoyl)benzyl)-6-(6,7-dimethoxyquinazolin-4-yloxy)-1-naphthamide] | 30 | 11.3 | 30 | 5.7 | 14.7 | 49.4 | 0.018 | 0.148 | 4.3 |  | 
6 | COc1cc2nccc(Oc3ccc4c(C(=O)Nc5ccccc5N)cccc4c3)c2cc1OC [Compound 35, N-(2-aminophenyl)-6-(6,7-dimethoxyquinolin-4-yloxy)-1-naphthamide] | 19.5 | 1.2 | 7.7 | 8.9 | 9.1 | 19.3 | 0.001 | 0.005 | 13.3 |  | 
7 | COc1cc2nccc(Oc3ccc4c(C(=O)NCc5ccc(C(=O)Nc6ccccc6N)cn5)cccc4c3)c2cc1OC [Compound 38] | 30 |  | 30 | 8 | 6.9 | 39.3 | 0.025 |  | 9.4 | 3.1 | 0.074
8 | COc1cc2ncnc(Oc3ccc4c(C(=O)NCc5ccc(C(=O)Nc6ccccc6N)cn5)cccc4c3)c2cc1OC [Compound 25] | 30 |  | 30 | 4.9 | 14.7 | 47.9 | 0.013 |  | 6.1 | 12.1 | 0.069
9 | COc1cc2nccc(Oc3ccc4c(C(=O)Nc5ccc(F)cc5N)cccc4c3)c2cc1OC [Compound 36, N-(2-amino-4-fluorophenyl)-6-(6,7-dimethoxyquinolin-4-yloxy)-1-naphthamide] | 12.1 | 1.2 | 7.4 | 4.1 | 4.2 | 14.4 | 0.002 | 0.003 | 8.9 |  | 

— patent publication EP2439195B1, “NAPHTHALENE CARBOXAMIDE DERIVATIVES AS INHIBITORS OF PROTEIN KINASE AND HISTONE DEACETYLASE, PREPARATION METHODS AND USES THEREOF” (Shenzhen Chipscreen Biosciences, Ltd., priority 2009, dated 2010)
